# *1 amine or outer side, *2 acyl side, *3 side chain or, on linkers, in order; H or OH if unused. Where a SMILES comes first, the peptide text is derived from it. Bridges are numbered along the chain shown (N, C = ends). Side-chain parts run from the residue outwards. [ ]: non-standard residue; d: D form. The star is where a group is joined. ξ: configuration not given here. X30 = C[N+](C)(CCCC(=O)CCOCCOCCOCCOCCOCCOCCNC(=O)CC[C@H](NC(=O)CCCCCCCCCCCCCCCCC(=O)O)C(=O)O)CC(=O)*; Me3N+CH2CH2(OCH2CH2)4CO = C[N+](C)(C)CCOCCOCCOCCOCCC(=O)*; Trp(7-Me) = Cc1cccc2c(C[C@H](N)C(=O)O)c[nH]c12; C18 diacid = O=C(O)CCCCCCCCCCCCCCCCC(=O)*; X6 = CN(CC[C@H](N[*:1])C(=O)[*:2])[*:3]; γGlu = O=C(O)[C@H](CCC(=O)[*:2])N[*:1]; 2Nal = N[C@@H](Cc1ccc2ccccc2c1)C(=O)O; AEF = NCCOc1ccc(C[C@H](N)C(=O)O)cc1; X2 = C[N+](C)(C)C[C@@H](CC(=O)O)N*; ξAEF = NCCOc1ccc(CC(N)C(=O)O)cc1; 3Pal = N[C@@H](Cc1cccnc1)C(=O)O; Lys(Me) = CNCCCC[C@H](N)C(=O)O; NMeK = CN[C@@H](CCCCN)C(=O)O; Pen = CC(C)(S)[C@H](N)C(=O)O; Suc = O=C(CCC(=O)[*:2])[*:1]; ξ3Pal = NC(Cc1cccnc1)C(=O)O; Ac6c = NC1(C(=O)O)CCCCC1; Thp = NC1(C(=O)O)CCOCC1; Abu = CC[C@H](N)C(=O)O; X31 = C=C(CN(C)*)N(C)C; AEEA = NCCOCCOCC(=O)O; ξK = NCCCCC(N)C(=O)O; Sar = CNCC(=O)O
# Assays:
# [1] = biological target: T1, IL-23R (Homo sapiens, UniProt Q5VWK5); experiment: IL23R Reporter Assay; type: cell-based; details: HEK293 cells containing IL-23R, IL-12Rβ1 and STAT-inducible firefly luciferase reporter; 10 ng/mL IL-23 (EC90); 5 h
# T1 construct: HEK293 cells containing IL-23R, IL-12Rβ1 and a firefly luciferase reporter gene driven by a STAT-inducible promoter (Promega); host or cells: HEK293
# T1 sequence (Q5VWK5 24-629): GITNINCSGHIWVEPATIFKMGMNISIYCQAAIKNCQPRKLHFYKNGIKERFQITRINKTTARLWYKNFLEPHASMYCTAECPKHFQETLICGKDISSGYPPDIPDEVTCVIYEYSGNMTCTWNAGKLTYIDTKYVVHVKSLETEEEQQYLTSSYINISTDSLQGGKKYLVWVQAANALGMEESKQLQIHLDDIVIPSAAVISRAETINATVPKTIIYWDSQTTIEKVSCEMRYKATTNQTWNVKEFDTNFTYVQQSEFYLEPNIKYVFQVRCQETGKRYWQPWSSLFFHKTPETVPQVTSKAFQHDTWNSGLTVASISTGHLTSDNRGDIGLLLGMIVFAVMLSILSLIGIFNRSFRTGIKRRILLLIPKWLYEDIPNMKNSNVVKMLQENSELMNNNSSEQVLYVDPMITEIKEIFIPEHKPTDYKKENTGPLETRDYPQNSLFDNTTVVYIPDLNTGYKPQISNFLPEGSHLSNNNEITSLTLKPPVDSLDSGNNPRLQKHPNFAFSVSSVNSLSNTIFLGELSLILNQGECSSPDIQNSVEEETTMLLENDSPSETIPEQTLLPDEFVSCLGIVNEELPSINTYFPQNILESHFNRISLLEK
# Summary of the method: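 IC50 values were fitted with a 4-parameter Hill equation to luciferase signal, scaled between IL-23-only wells (0% inhibition) and 30 μM reference inhibitor (100%). The readout was a STAT-inducible reporter in IL-23R/IL-12Rβ1 HEK293 cells, stimulated with added 10 ng/mL IL-23 (EC90) for 5 h at 37° C and developed with BioGlo.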
# [2] = tested on: IL-23-stimulated phosphorylated STAT3 in peripheral blood mononuclear cells (PBMCs); experiment: PBMC pSTAT3 Assay; type: cell-based; details: PBMCs from healthy donors; 30 min preincubation with peptide; IL-23 5 ng/mL for 30 min; phospho-STAT3 by MSD
# Summary of the method: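 Phospho-STAT3 quantified by Meso Scale assay in lysates of PBMCs exposed to IL-23 (5 ng/mL, 30 min, 37 °C) after 30 min peptide pretreatment. Cells were cryopreserved donor PBMCs activated 4 days with anti-CD3 plus IL-1β (100 ng/mL) and starved ~4 h; IC50 reported.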
SMILES,IC50 [1] [nM],IC50 [2] [nM]
"CC(=O)NCCCC[C@@H]1NC(=O)[C@H](Cc2c[nH]c3c(C)cccc23)NC(=O)[C@H]([C@@H](C)O)NC(=O)[C@H](CC(N)=O)NC(=O)[C@@H](NC(=O)[C@@H](CCCNC(=N)N)NC(=O)CCC(=O)N[C@H](CC(=O)O)C[N+](C)(C)C)C(C)(C)SSC(C)(C)[C@@H](C(=O)N[C@@H](Cc2ccc(OCCN)cc2)C(=O)N[C@@H](Cc2ccc3ccccc3c2)C(=O)NC2(C(=O)N[C@@H](CCC(=O)O)C(=O)N[C@@H](CC(N)=O)C(=O)N[C@@H](Cc3cccnc3)C(=O)N(C)CC(=O)N[C@@H](CCCCNC(=O)COCCOCCNC(=O)COCCOCCNC(=O)CC[C@H](NC(=O)CCCCCCCCCCCCCCCCC(=O)O)C(=O)O)C(N)=O)CCOCC2)NC1=O [compound 54, succiniccarn-r-Pen(3)-N-T-7MeW-K(Ac)-Pen(3)-AEF-2Nal-THP-E-N-3Pya-Sar-K(PEG2PEG2gEC18OH)-CONH2] ({X2-Suc}-[dR][Pen]NT[Trp(7-Me)]K(Ac)[Pen][AEF][2Nal][Thp]EN[3Pal][Sar]K([AEEA-AEEA-γGlu-C18 diacid])-NH2; disulfide 2-7)",50 to 500,< 0.5
"Cc1cccc2c(C[C@@H]3NC(=O)[C@H]([C@@H](C)O)NC(=O)[C@H](CC(=O)N(C)C)NC(=O)[C@@H](NC(=O)CCOCCOCCOCCOCC[N+](C)(C)C)C(C)(C)SSC(C)(C)[C@@H](C(=O)NC(Cc4ccc(OCCN)cc4)C(=O)N[C@@H](Cc4ccc5ccccc5c4)C(=O)NC4(C(=O)N[C@@H](CCC(=O)O)C(=O)N[C@@H](CC(N)=O)C(=O)N[C@@H](Cc5cccnc5)C(=O)N(C)[C@@H](CCCCNC(=O)COCCOCCNC(=O)COCCOCCNC(=O)CC[C@H](NC(=O)CCCCCCCCCCCCCCCCC(=O)O)C(=O)O)C(N)=O)CCOCC4)NC(=O)[C@H](CCN(C)C(=O)CCOCCOCCOCCOCC[N+](C)(C)C)NC3=O)c[nH]c12 (some centres unmarked) [compound 153, cPEG5aCO-Pen(3)-N(N(Me)2)-T-7MeW-Dab(NMecPEG5a)-Pen(3)-AEF-2Nal-THP-E-N-3Pya-NMeK(PEG2PEG2gEC18OH)-CONH2] ({Me3N+CH2CH2(OCH2CH2)4CO}-[Pen]D(NMe2)T[Trp(7-Me)][X6](Me3N+CH2CH2(OCH2CH2)4CO)[Pen][ξAEF][2Nal][Thp]EN[3Pal][NMeK]([AEEA-AEEA-γGlu-C18 diacid])-NH2; disulfide 1-6)",50 to 500,< 0.5
"CC(=O)NCCCCC1NC(=O)[C@H](Cc2c[nH]c3c(C)cccc23)NC(=O)[C@H]([C@@H](C)O)NC(=O)[C@H](CC(N)=O)NC(=O)[C@@H](NC(=O)[C@H](CCCCNC(=O)COCCOCCNC(=O)COCCOCCNC(=O)CC[C@H](NC(=O)CCCCCCCCCCCCCCCCC(=O)O)C(=O)O)NC(C)=O)C(C)(C)SSC(C)(C)[C@@H](C(=O)N[C@@H](Cc2ccc(OCCN)cc2)C(=O)N[C@@H](Cc2ccc3ccccc3c2)C(=O)NC2(C(=O)N[C@@H](CCCCNC(C)=O)C(=O)N[C@@H](CC(N)=O)C(=O)N[C@@H](Cc3cccnc3)C(=O)N(C)CC(N)=O)CCOCC2)NC1=O (stereo partly drawn) [compound 39, MeCO-K(PEG2PEG2gEC18OH)-Pen(3)-N-T-7MeW-K(Ac)-Pen(3)-AEF-2Nal-THP-K(Ac)-N-3Pya-Sar-CONH2] (Ac-K([AEEA-AEEA-γGlu-C18 diacid])[Pen]NT[Trp(7-Me)][ξK](Ac)[Pen][AEF][2Nal][Thp]K(Ac)N[3Pal][Sar]-NH2; disulfide 2-7)",< 50,< 0.5
"C=C(CN(C)C(=O)C(Cc1cccnc1)NC(=O)[C@H](CC(N)=O)NC(=O)[C@H](CCCCN(C)C(C)=O)NC(=O)C1(NC(=O)[C@H](Cc2ccc3ccccc3c2)NC(=O)[C@H](Cc2ccc(OCCNC(=O)C[N+](C)(C)CCCC(=O)CCOCCOCCOCCOCCOCCOCCNC(=O)CC[C@H](NC(=O)CCCCCCCCCCCCCCCCC(=O)O)C(=O)O)cc2)NC(=O)[C@H]2NC(=O)[C@H](CCCCN(C)C(C)=O)NC(=O)[C@H](Cc3c[nH]c4ccccc34)NC(=O)[C@H]([C@@H](C)O)NC(=O)[C@H](CC)NC(=O)[C@@H](N)C(C)(C)SSC2(C)C)CCCCC1)N(C)C (stereo partly drawn) [compound 142, cPEG3aCO-Pen(3)-N(N(Me)2)-T-7MeW-K(NMeAc)-Pen(3)-AEF(SP6PEG6gEC18OH)-2Nal-THP-K(NMeAc)-N-3Pya-Sar-CON(Me)2] (H-[Pen][Abu]TW[Lys(Me)](Ac)[Pen][AEF](X30)[2Nal][Ac6c][Lys(Me)](Ac)N[ξ3Pal]-X31; disulfide 1-6)",< 50,< 0.5

# — patent publication US20260250320A1, “LIPIDATED PEPTIDE INHIBITORS OF INTERLEUKIN-23 RECEPTOR” (Janssen Pharmaceutica NV, priority 2023, published 2026)
